Laboratory results: BigSolDB 2.1

CCC[C@@H]1C[C@@H](C(=O)N[C@@H]([C@H]2O[C@H](SC)[C@H](O)[C@H]3OC(C)(C)O[C@H]32)[C@H](C)Cl)N(C)C1
solubility (mole fraction) (in acetone, 273.15 K): 0.0112 | solubility (mole fraction) (in acetone, 278.15 K): 0.0132 | solubility (mole fraction) (in acetone, 283.15 K): 0.0164 | solubility (mole fraction) (in acetone, 288.15 K): 0.0195 | solubility (mole fraction) (in acetone, 293.15 K): 0.024 | solubility (mole fraction) (in acetone, 298.15 K): 0.0283 | solubility (mole fraction) (in acetone, 303.15 K): 0.0348 | solubility (mole fraction) (in acetone, 308.15 K): 0.0425 | solubility (mole fraction) (in acetone, 313.15 K): 0.0502 | solubility (mole fraction) (in acetonitrile, 273.15 K): 0.0032 | solubility (mole fraction) (in acetonitrile, 278.15 K): 0.004 | solubility (mole fraction) (in acetonitrile, 283.15 K): 0.005 | solubility (mole fraction) (in acetonitrile, 288.15 K): 0.0063 | solubility (mole fraction) (in acetonitrile, 293.15 K): 0.0078 | solubility (mole fraction) (in acetonitrile, 298.15 K): 0.0098 | solubility (mole fraction) (in acetonitrile, 303.15 K): 0.0123 | solubility (mole fraction) (in acetonitrile, 308.15 K): 0.0153 | solubility (mole fraction) (in acetonitrile, 313.15 K): 0.0189 | solubility (mole fraction) (in ethanol, 273.15 K): 0.0146 | solubility (mole fraction) (in ethanol, 278.15 K): 0.0179 | solubility (mole fraction) (in ethanol, 283.15 K): 0.0208 | solubility (mole fraction) (in ethanol, 288.15 K): 0.0243 | solubility (mole fraction) (in ethanol, 293.15 K): 0.0292 | solubility (mole fraction) (in ethanol, 298.15 K): 0.0352 | solubility (mole fraction) (in ethanol, 303.15 K): 0.0423 | solubility (mole fraction) (in ethanol, 308.15 K): 0.0506 | solubility (mole fraction) (in ethanol, 313.15 K): 0.0594 | solubility (mole fraction) (in ethyl acetate, 273.15 K): 0.0075 | solubility (mole fraction) (in ethyl acetate, 278.15 K): 0.0093 | solubility (mole fraction) (in ethyl acetate, 283.15 K): 0.0114 | solubility (mole fraction) (in ethyl acetate, 288.15 K): 0.0143 | solubility (mole fraction) (in ethyl acetate, 293.15 K): 0.0175 | solubility (mole fraction) (in ethyl acetate, 298.15 K): 0.0215 | solubility (mole fraction) (in ethyl acetate, 303.15 K): 0.026 | solubility (mole fraction) (in ethyl acetate, 308.15 K): 0.0319 | solubility (mole fraction) (in ethyl acetate, 313.15 K): 0.0388 | solubility (mole fraction) (in isobutanol, 273.15 K): 0.0139 | solubility (mole fraction) (in isobutanol, 278.15 K): 0.0175 | solubility (mole fraction) (in isobutanol, 283.15 K): 0.022 | solubility (mole fraction) (in isobutanol, 288.15 K): 0.0274 | solubility (mole fraction) (in isobutanol, 293.15 K): 0.0334 | solubility (mole fraction) (in isobutanol, 298.15 K): 0.0409 | solubility (mole fraction) (in isobutanol, 303.15 K): 0.0491 | solubility (mole fraction) (in isobutanol, 308.15 K): 0.0584 | solubility (mole fraction) (in isobutanol, 313.15 K): 0.0696 | solubility (mole fraction) (in isopropanol, 273.15 K): 0.0102 | solubility (mole fraction) (in isopropanol, 278.15 K): 0.0124 | solubility (mole fraction) (in isopropanol, 283.15 K): 0.0149 | solubility (mole fraction) (in isopropanol, 288.15 K): 0.018 | solubility (mole fraction) (in isopropanol, 293.15 K): 0.022 | solubility (mole fraction) (in isopropanol, 298.15 K): 0.0266 | solubility (mole fraction) (in isopropanol, 303.15 K): 0.0324 | solubility (mole fraction) (in isopropanol, 308.15 K): 0.0393 | solubility (mole fraction) (in isopropanol, 313.15 K): 0.0468 | solubility (mole fraction) (in methanol, 273.15 K): 0.0212 | solubility (mole fraction) (in methanol, 278.15 K): 0.0255 | solubility (mole fraction) (in methanol, 283.15 K): 0.0306 | solubility (mole fraction) (in methanol, 288.15 K): 0.0351 | solubility (mole fraction) (in methanol, 293.15 K): 0.0408 | solubility (mole fraction) (in methanol, 298.15 K): 0.0481 | solubility (mole fraction) (in methanol, 303.15 K): 0.0554 | solubility (mole fraction) (in methanol, 308.15 K): 0.0651 | solubility (mole fraction) (in methanol, 313.15 K): 0.0746 | solubility (mole fraction) (in methyl acetate, 273.15 K): 0.0087 | solubility (mole fraction) (in methyl acetate, 278.15 K): 0.0102 | solubility (mole fraction) (in methyl acetate, 283.15 K): 0.0132 | solubility (mole fraction) (in methyl acetate, 288.15 K): 0.0162 | solubility (mole fraction) (in methyl acetate, 293.15 K): 0.0198 | solubility (mole fraction) (in methyl acetate, 298.15 K): 0.024 | solubility (mole fraction) (in methyl acetate, 303.15 K): 0.0293 | solubility (mole fraction) (in methyl acetate, 308.15 K): 0.0355 | solubility (mole fraction) (in methyl acetate, 313.15 K): 0.042 | solubility (mole fraction) (in n-butanol, 273.15 K): 0.0166 | solubility (mole fraction) (in n-butanol, 278.15 K): 0.0213 | solubility (mole fraction) (in n-butanol, 283.15 K): 0.0272 | solubility (mole fraction) (in n-butanol, 288.15 K): 0.0325 | solubility (mole fraction) (in n-butanol, 293.15 K): 0.0391 | solubility (mole fraction) (in n-butanol, 298.15 K): 0.0478 | solubility (mole fraction) (in n-butanol, 303.15 K): 0.0571 | solubility (mole fraction) (in n-butanol, 308.15 K): 0.0672 | solubility (mole fraction) (in n-butanol, 313.15 K): 0.0794 | solubility (mole fraction) (in n-propanol, 273.15 K): 0.015 | solubility (mole fraction) (in n-propanol, 278.15 K): 0.0189 | solubility (mole fraction) (in n-propanol, 283.15 K): 0.0238 | solubility (mole fraction) (in n-propanol, 288.15 K): 0.0294 | solubility (mole fraction) (in n-propanol, 293.15 K): 0.0363 | solubility (mole fraction) (in n-propanol, 298.15 K): 0.0428 | solubility (mole fraction) (in n-propanol, 303.15 K): 0.0529 | solubility (mole fraction) (in n-propanol, 308.15 K): 0.0637 | solubility (mole fraction) (in n-propanol, 313.15 K): 0.0751 | solubility (mole fraction) (in n-propyl acetate, 273.15 K): 0.0065 | solubility (mole fraction) (in n-propyl acetate, 278.15 K): 0.008 | solubility (mole fraction) (in n-propyl acetate, 283.15 K): 0.0106 | solubility (mole fraction) (in n-propyl acetate, 288.15 K): 0.0124 | solubility (mole fraction) (in n-propyl acetate, 293.15 K): 0.0152 | solubility (mole fraction) (in n-propyl acetate, 298.15 K): 0.0183 | solubility (mole fraction) (in n-propyl acetate, 303.15 K): 0.0223 | solubility (mole fraction) (in n-propyl acetate, 308.15 K): 0.0283 | solubility (mole fraction) (in n-propyl acetate, 313.15 K): 0.0347 | solubility (mole fraction) (in sec-butanol, 273.15 K): 0.0229 | solubility (mole fraction) (in sec-butanol, 278.15 K): 0.0282 | solubility (mole fraction) (in sec-butanol, 283.15 K): 0.0344 | solubility (mole fraction) (in sec-butanol, 288.15 K): 0.0413 | solubility (mole fraction) (in sec-butanol, 293.15 K): 0.0507 | solubility (mole fraction) (in sec-butanol, 298.15 K): 0.0597 | solubility (mole fraction) (in sec-butanol, 303.15 K): 0.0709 | solubility (mole fraction) (in sec-butanol, 308.15 K): 0.0813 | solubility (mole fraction) (in sec-butanol, 313.15 K): 0.0947
